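Five concentrations, 48 hours, 96-well plates. The concentration for 50% growth inhibition is given as GI50. TGI denotes the concentration required for complete inhibition of growth.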
How the values were obtained:
Test in all cases: inhibition of tumour cell growth, NCI panel, 48 h
[1] = tested on: LOX IMVI melanoma
[2] = tested on: HT29 colon
[3] = tested on: SK-MEL-5 melanoma
[4] = tested on: SW-620 colon
[5] = tested on: SN12C renal
[6] = tested on: K-562 leukemia
[7] = tested on: M14 melanoma
[8] = tested on: SNB-19 CNS
[9] = tested on: NCI-H226 lung
[10] = tested on: SF-295 CNS

Row | Structure (SMILES) | TGI [1] [µM] | TGI [2] [µM] | TGI [3] [µM] | TGI [4] [µM] | TGI [5] [µM] | TGI [6] [µM] | TGI [7] [µM] | TGI [8] [µM] | TGI [9] [µM] | TGI [10] [µM] | GI50 [1] [µM] | GI50 [2] [µM] | GI50 [3] [µM] | GI50 [4] [µM] | GI50 [5] [µM] | GI50 [6] [µM] | GI50 [7] [µM] | GI50 [8] [µM] | GI50 [9] [µM] | GI50 [10] [µM]
1 | CCOc1ccc(N=Cc2ccnc3ccccc23)cc1 | > 80.3 | > 100 | > 82.6 | > 100 | > 91.5 | 46.9 | 80 | > 100 | > 100 | > 100 | – | – | – | – | – | – | – | – | – | –
2 | C1CC2=C(C1)C1=S(S2)SC2=C1CCC2 | > 100 | > 100 | > 100 | > 100 | > 100 | > 100 | > 100 | > 100 | > 100 | > 100 | – | – | – | – | – | – | – | – | – | –
3 | O=c1c2cccnc2ncn1CCCN1CCCC1 | > 100 | > 100 | > 100 | > 100 | > 100 | > 100 | > 100 | > 100 | > 100 | > 100 | – | – | – | – | – | – | – | – | – | –
4 | CCn1c(=N)sc2nc3ccccc3n2c1=O | > 100 | > 100 | > 100 | > 100 | > 100 | > 100 | > 100 | > 100 | > 100 | > 100 | – | – | – | – | – | – | – | – | – | –
5 | COc1cc(-c2cc3ncccc3c3[nH]c(=O)c4cccnc4c23)cc(OC)c1OC | > 100 | > 100 | 3.17 | > 100 | > 100 | > 100 | > 100 | > 100 | > 100 | 25.4 | 0.511 | 0.397 | 0.51 | 0.493 | 14.3 | 0.392 | 0.425 | 0.981 | 23.6 | 0.379
6 | O=C(Nc1ccc2c(c1)OCCO2)C(=O)c1c[nH]c2ccccc12 | > 100 | 3.78 | > 100 | > 100 | > 83 | > 100 | > 100 | 79.7 | 61.3 | 10.6 | 1.3 | 0.81 | 1.47 | 0.475 | 2.31 | 0.369 | 0.839 | 2.88 | 5.03 | 1.33
7 | COC(=O)/C(=C/c1ccc(OC)cc1)C(C(=O)O)=C1CCCCC1 | > 100 | > 100 | > 100 | > 100 | > 100 | > 100 | > 100 | > 100 | > 100 | > 100 | – | – | – | – | – | – | – | – | – | –
8 | C=C(CN1c2ccccc2Sc2ccccc21)c1ccc(C(=O)Nc2ccccc2N)cc1 | > 100 | > 100 | > 100 | > 100 | > 100 | > 100 | > 100 | > 100 | > 100 | > 100 | > 52.7 | 11.5 | 44.7 | > 92.3 | 8.07 | 2.47 | 32.9 | > 54.3 | 8.53 | > 38.3
9 | CC[C@@H](O)C[C@H]1CCC[C@@]2(C[C@@H]3OC(=O)/C=C/[C@@](C)(O)[C@@H](O)[C@H](C)[C@@H](O)[C@H](OC4CCC(N(C)C)C(C)O4)[C@@H](O)[C@](C)(O)CCCCC/C=C/[C@@H]4CC(C)(C)O[C@@]4(O)C[C@H](O2)[C@H]3C)O1 (stereo not given in full) | 9.46 | > 39.7 | 2.04 | 53.6 | 37.1 | 21.5 | 7.48 | 20.6 | 29.6 | 21.6 | – | – | – | – | – | – | – | – | – | –
10 | CCN(CC)c1ccc(N=Nc2ccc(-c3nc4cccn(C)c-4n3)cc2)cc1 | 6.42 | 13.8 | 16.8 | 22.9 | 19.3 | 11.9 | 24.4 | 52.4 | 43.8 | 19.4 | – | – | – | – | – | – | – | – | – | –
11 | CCOC(=O)C#Cc1c(C(=O)OCC)nnn1[C@@H]1O[C@H](CO)[C@H]2OC3(CCCCC3)O[C@H]21 | 2.83 | 3.77 | 26.6 | 3.64 | 9.37 | 7.97 | 7.6 | 40.5 | 3.17 | 45.3 | 1.31 | 1.93 | 13.7 | 1.81 | 3.11 | 1.67 | 2.67 | 18.3 | 1.72 | 20.9
12 | CCC(C)(O)c1cn(-c2ccc(S(=O)(=O)O)cc2)nn1 (stereo not given) | > 100 | > 100 | > 100 | > 100 | > 100 | > 100 | > 100 | > 100 | > 100 | > 100 | – | – | – | – | – | – | – | – | – | –
13 | COC(=O)CCC(=O)N1CC1C (stereo not given) | > 100 | > 100 | > 100 | > 100 | > 100 | > 100 | > 100 | > 100 | > 100 | > 100 | – | – | – | – | – | – | – | – | – | –
14 | Cc1noc(C)c1-c1cnc2c(-c3ccc(C(=O)O)cc3)cn([C@@H](C)c3ccccn3)c2c1 | 7.73 | > 100 | 4.07 | > 100 | > 100 | > 100 | > 100 | > 100 | > 46.6 | > 100 | 0.315 | 0.386 | 0.644 | 15.6 | 2.99 | 0.964 | 0.629 | 1.58 | 5.02 | 3.71
15 | CC(=O)OC1C(O[C@H]2CC[C@]34O[C@]35CC[C@]3(C)C(C6(C)CC[C@@H](C(C)(C)O)O6)[C@@H](O)CC3(C)[C@@H]5CC(OC3OC(CO)C(O)C(O)C3O)C4C2(C)C)OCC(O)C1O (stereo not given in full) | > 59.3 | > 100 | > 100 | > 49.3 | > 100 | > 74.8 | > 100 | > 100 | > 100 | > 100 | – | – | – | – | – | – | – | – | – | –
16 | C/C(CC(=O)Nc1ccc(NC(=O)C/C(C)=N\NC(N)=O)cc1)=N/NC(N)=O | > 60.1 | > 100 | > 100 | > 100 | > 100 | > 100 | > 100 | > 100 | > 100 | > 100 | – | – | – | – | – | – | – | – | – | –
17 | CCc1nn2ncccc2c1-c1ccnc(NC2CC2)n1 | > 25 | > 25 | > 25 | > 25 | > 25 | > 25 | > 25 | > 25 | > 25 | > 25 | > 25 | > 25 | > 25 | > 25 | > 25 | > 25 | > 25 | > 25 | 20.2 | > 25

From PubChem BioAssay (NCI)
